Laboratory results from US20020025314A1, “Homeopathic compositions for the treatment of viral and metabolic deseases” (priority 1992, published 2002).

Experiments:
[1] = tested on: patient presenting with hyperthyroidism due to multinodular thyroid hyperplasia, and morning allergic rhinitis; assay: Case No. 2: TSH / free T4 and allergic rhinitis in a patient with hyperthyroidism; type: in vivo, human; conditions: for course of hyperthyroidism / thyroid hormone level under treatment: a few days of Basdene, 10 days of Neomercazole; for TSH: normal 0.2 to 4; for T4f: normal 10 to 25
From the text: A patient presenting with hyperthyroidism due to multinodular thyroid hyperplasia, and morning allergic rhinitis.
The normal levels are 0.2 to 4 for TSH and 10 to 25 for T4f. The TSH is abnormally low and the free T4 abnormally high. The patient receives treatment with a synthetic thyroid inhibitor, namely Basdene 9 on its own, starting on February 22, at increasing doses of 1 tbl on the 1st day, 2 tbl on the 2nd day and then 3 tbl per day. on 3 March TSH: 0.02
On March 7, the patient is seen again by the consultant and, in place of Basdene®, Neo-mercazole® is prescribed at doses of 3 tbl 3 times a day:
On March, 20 the patient is seen again and the following is added to the Neo-mercazole treatment for the allergic rhinitis:
Natrium muriaticum 6DH, 3 tbl/1 for 7 days, then
Natrium muriaticum 4CH, 3 granules/1 for 15 days.
In order to know whether it is the Natrium muriaticum or the Neomercazole 9 which has normalized the thyroid functions, the Neo-mercazole® is suddenly withdrawn, which, if it is the Neo-mercazole® which has lowered the T4f, should have the effect of raising it immediately to 30, and the regular administration of Natrium muriaticum 4CH is continued on April 13.
Natrium muriaticum 6DH: 3tbl/day from March 20 to April 11, then Natrium muriaticum 4CH: 3 granules/day from April 11 to April 28. On April 28, the patient is seen again by the consultant and the prescribed dose of Natrium muriaticum is further modified, being increased to Natrium muriaticum 5CH: 3 granules a day. The Neo-mercazole® was of course never restarted. The effect of this change in doses of Natrium muriaticum is to further lower the thyroid hormone:
The following dose of Natrium Muriaticum 5CH is still continued from this time on: 3 granules a day.
There was no cancer on the operated part. On August 1 the result of this operation is a T4f of 13.8, which is now near the lower limit of the norm (the norm being 10 to 25). A tendency towards hypothyroidism might be feared.

[2] = tested on: child suffering from juvenile chronic polyarthritis; assay: Case No. 3: clinical course of juvenile chronic polyarthritis; type: in vivo, human; conditions: 1 tbl of 250 mg a day, before homeopathic treatment; disease worsens
[3] = on 17 March, after 10 days of Neo-mercazole 3 tbl 3 times a day

Row | SMILES | course of hyperthyroidism / thyroid hormone level under treatment [1] | TSH [1, 3] | T4f [1, 3] | TSH ([1]; on 3 March, Basdene on its own from February 22, up to 3 tbl per day, 0.02 before treatment) | T4f ([1]; on 3 March, Basdene on its own from February 22, up to 3 tbl per day, 35 before treatment) | suppression of polyarticular symptoms [2]
1 | CCOC(=O)n1ccn(C)c1=S [Neo-mercazole] | no improvement | 0.02 | 33.8 |  |  | 
2 | Oc1cc(Cc2ccccc2)nc(S)n1 [Basdene] | remained identical and even become slightly worse |  |  | 0.02 | 36.8 | 
3 | COc1ccc2cc([C@H](C)C(=O)O)ccc2c1 [Naprosyn] |  |  |  |  |  | not sufficient to suppress the symptoms
